# Reference: publication PMC11156899, “High-throughput screening unveils nitazoxanide as a potent PRRSV inhibitor by targeting NMRAL1” (Nature Communications, 2024)
# Legend:
# PRRSV GSWW-18 strain = assay: In vivo antiviral effect in swine infected with GSWW-18 strain; design: species or system pig; conditions: for PRRSV dynamics in blood within 24 h: 48 h post infection
# PRRSV (GSWW-18 strain) = assay: Anti-PRRSV dose-response (EC50, IFA) in PAM cells; format: cell-based, Porcine Reproductive and Respiratory Syndrome Virus; conditions: PAM cells
# [1] = Cytotoxicity assay (CC50) in MARC-145 cells; format: cell-based; conditions: African green monkey, 48 h of exposure, CCK-8
# From the text: Control wells contained DMEM with 0.5% DMSO.
# (§1) Supplementary Fig. 3: Cytotoxicity and Antiviral Efficacy of NTZ.
# (§2) PRRSV capsid protein positive
# (§3) (primary antibody SR30, green) and nuclei (DAPI, blue).
# [2] = tested on: PRRSV (VR-2332, GSWW-15, GSWW-18); assay: Viral titers of VR-2332, GSWW-15 and GSWW-18 in Marc-145 cells; format: cell-based, Porcine Reproductive and Respiratory Syndrome Virus; conditions: all three strains
# Experimental: Viral solutions were serially diluted by a factor of 10. Samples containing varying concentrations of virus (100 μL each) were combined with DMEM containing 2% FBS (100 μL) and added to wells; control wells were virus-free. […] Relative quantification qRT-PCR was used to assess PRRSV gene expression, normalized using the 2^−ΔΔCt method in Design & Analysis Software (v2.6.0). Absolute quantification qRT-PCR was used for viral copy number detection, with RNA concentration normalization prior to analysis, as described in our previous publication. Primers used included: PRRSV 5′-[…]′ and 5′-[…]-3′; Marc-145-GAPDH 5′-[…]-3′ and 5′-[…]-3′; PAM-GAPDH 5′-[…]-3′ and 5′-[…]-3′; IFNβ 5′-[…]-3′ and 5′-[…]-3′; Human-GAPDH 5′-[…]-3′ and 5′-[…]-3′.
# as §1, §2, §3
# [3] = tested on: Porcine alveolar macrophages (PAM); assay: in vitro
# Experimental: (§4) A concentration-gradient screening strategy was employed for 141 compounds using indirect immunofluorescence assay (IFA). […] Data are mean ± SEM.
# (§5) Cells were seeded in 96-well plates and grown in DMEM supplemented with 10% FBS. Upon reaching confluence, compounds were diluted to varying concentrations in 2% FBS-containing medium. Control wells contained DMEM with 0.5% DMSO. Treated cells were incubated at 37 °C in a 5% CO2 humidified environment for 48 or 72 h, followed by cytotoxicity assessment as outlined in our previous work[21]. […]
# in vitro = conditions: pig
# Experimental: as §4, §5
# [4] = treatment group, only 25 mg/kg, P < 0.0001
compound,measurement,setting,value
CC(=O)Oc1ccccc1C(=O)Nc1ncc([N+](=O)[O-])s1 [Nitazoxanide],PRRSV dynamics in blood within 24 h,PRRSV GSWW-18 strain; 5 mg/kg oral at 0 h and 12 h,viral loads decreased from 2 h to 8 h post administration
same,PRRSV dynamics in blood within 24 h,PRRSV GSWW-18 strain; 10 mg/kg oral at 0 h and 12 h,more pronounced inhibition
same,body temperature and weight,PRRSV GSWW-18 strain; 25 mg/kg oral,alleviated the rise in body temperature and weight loss
same,lung PRRSV-positive cells (IHC),"PRRSV GSWW-18 strain; 25 mg/kg oral, prophylactic and therapeutic groups, vs MOCK",fewer lung PRRSV-positive cells
same,clinical symptoms by day 7,"PRRSV GSWW-18 strain; 25 mg/kg, treatment and prophylactic groups",no apparent clinical symptoms
same,interstitial pneumonia with lobar consolidation,"PRRSV GSWW-18 strain; a specific dose of NTZ, PO BID 3 days",significantly mitigated
same,fatalities within 14 days,"PRRSV GSWW-18 strain; pig, in vivo",no fatalities
same,"PRRSV replication in ManLNs, lungs and tonsils","PRRSV GSWW-18 strain; prophylactic and treatment groups, P < 0.0332",significantly reduced
same,PRRSV viral load in blood,"PRRSV GSWW-18 strain; prophylactic group, 5 mg/kg, P = 0.0033",significantly reduced
same,viral copy numbers in BALF,"PRRSV GSWW-18 strain; prophylactic group, 10 mg/kg and 25 mg/kg, P < 0.0001",significant effects
same,oronasal shedding,"PRRSV GSWW-18 strain; prophylactic group, 10 mg/kg, P = 0.0012",significantly lowered
same,anal shedding,"PRRSV GSWW-18 strain; prophylactic group, even at 25 mg/kg",did not reduce
same,viral copy numbers in BALF,PRRSV GSWW-18 strain; [4],achieved statistical significance
same,virus in ILNs,PRRSV GSWW-18 strain; [4],significantly suppressed
same,IFA inhibitory effect on PRRSV,PRRSV (GSWW-18 strain); GSWW-18,dose-dependent inhibitory effect
same,EC50,"PRRSV (GSWW-18 strain); Porcine reproductive and respiratory syndrome virus, mean ± SEM, n = 2, unit only on axis title, read-out: EC50",0.31 ± 0.147 µM
same,CC50 at 48 h,[1],~44 µM
same,relation of concentration to viral titers,[2],negative correlation
same,cytotoxicity (in words),[3],low cytotoxicity
same,CC50 at 48 h,in vitro,~44 µM
